Results published in PubChem BioAssay (NCI).
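Assay format: 96-well plates, 48-hour exposure. GI50 is the concentration that inhibits growth by half. Definition used: TGI = concentration required for complete inhibition of growth.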

Tests used:
Assay in all cases: NCI tumour cell line growth inhibition, 48 h
SK-OV-3 ovarian = system: SK-OV-3 ovarian
HOP-62 NSCLC = system: HOP-62 NSCLC
M14 melanoma = system: M14 melanoma
COLO 205 colon = system: COLO 205 colon
RXF 393 renal = system: RXF 393 renal
SNB-75 CNS = system: SNB-75 CNS
MCF7 breast = system: MCF7 breast
SF-268 CNS = system: SF-268 CNS
HCT-116 colon = system: HCT-116 colon
OVCAR-8 ovarian = system: OVCAR-8 ovarian
SNB-19 CNS = system: SNB-19 CNS
CAKI-1 renal = system: CAKI-1 renal
PC-3 prostate = system: PC-3 prostate
CCRF-CEM leukemia = system: CCRF-CEM leukemia
TK-10 renal = system: TK-10 renal
NCI/ADR-RES ovarian = system: NCI/ADR-RES ovarian
MDA-MB-231 breast = system: MDA-MB-231 breast
NCI-H23 lung = system: NCI-H23 lung
HL-60(TB) leukemia = system: HL-60(TB) leukemia
RPMI-8226 leukemia = system: RPMI-8226 leukemia
BT-549 breast = system: BT-549 breast
UACC-257 melanoma = system: UACC-257 melanoma
SK-MEL-2 melanoma = system: SK-MEL-2 melanoma
UO-31 renal = system: UO-31 renal
SN12C renal = system: SN12C renal
SR leukemia = system: SR leukemia
U251 CNS = system: U251 CNS
MDA-MB-435 = system: MDA-MB-435
K-562 leukemia = system: K-562 leukemia
KM12 colon = system: KM12 colon
HOP-92 NSCLC = system: HOP-92 NSCLC
HCT-15 colon = system: HCT-15 colon
SF-539 CNS = system: SF-539 CNS
SK-MEL-5 melanoma = system: SK-MEL-5 melanoma
SK-MEL-28 melanoma = system: SK-MEL-28 melanoma
HT29 colon = system: HT29 colon
OVCAR-4 ovarian = system: OVCAR-4 ovarian
786-0 renal = system: 786-0 renal
ACHN renal = system: ACHN renal
NCI-H226 lung = system: NCI-H226 lung
UACC-62 melanoma = system: UACC-62 melanoma
NCI-H522 lung = system: NCI-H522 lung
DU-145 prostate = system: DU-145 prostate
HCC-2998 colon = system: HCC-2998 colon
A549 NSCLC = system: A549 NSCLC
SW-620 colon = system: SW-620 colon
OVCAR-3 ovarian = system: OVCAR-3 ovarian
NCI-H460 lung = system: NCI-H460 lung
EKVX NSCLC = system: EKVX NSCLC
SF-295 CNS = system: SF-295 CNS
MOLT-4 leukemia = system: MOLT-4 leukemia
A498 renal = system: A498 renal
HS 578T breast = system: HS 578T breast
LOX IMVI melanoma = system: LOX IMVI melanoma
IGROV1 ovarian = system: IGROV1 ovarian
OVCAR-5 ovarian = system: OVCAR-5 ovarian
MALME-3M melanoma = system: MALME-3M melanoma
T-47D breast = system: T-47D breast

In the case of `O=C(Nc1cccc(Cl)c1)Nc1nccs1`, the GI50 (SK-OV-3 ovarian) is reported as 20.8 µM, the TGI (SK-OV-3 ovarian) is reported as 63.9 µM and the GI50 (HOP-62 NSCLC) is reported as 25.3 µM. For the same compound, the TGI (HOP-62 NSCLC) was greater than 100 µM, the GI50 (M14 melanoma) was 30.2 µM and the TGI (M14 melanoma) was greater than 100 µM. For the same compound, the GI50 (COLO 205 colon) was 16 µM, the TGI (COLO 205 colon) was 32.1 µM and the GI50 (RXF 393 renal) was 22.6 µM. It also gave a TGI (RXF 393 renal) of 49.4 µM, a GI50 (SNB-75 CNS) of 20 µM and a TGI (SNB-75 CNS) of 56.1 µM. It also gave a GI50 (MCF7 breast) of 7.97 µM, a TGI (MCF7 breast) greater than 100 µM and a GI50 (SF-268 CNS) of 30 µM. For the same compound, the TGI (SF-268 CNS) was greater than 100 µM, the GI50 (HCT-116 colon) was 26.8 µM and the TGI (HCT-116 colon) was greater than 100 µM. It also gave a GI50 (OVCAR-8 ovarian) of 25.1 µM, a TGI (OVCAR-8 ovarian) of 84.8 µM and a GI50 (SNB-19 CNS) of 36.6 µM. It also gave a TGI (SNB-19 CNS) greater than 100 µM, a GI50 (CAKI-1 renal) of 15.6 µM and a TGI (CAKI-1 renal) of 43.5 µM. The GI50 (PC-3 prostate) was 24.6 µM, the TGI (PC-3 prostate) was 94.8 µM and the GI50 (CCRF-CEM leukemia) was 27 µM. For the same compound, the TGI (CCRF-CEM leukemia) was greater than 100 µM, the GI50 (TK-10 renal) was 25.8 µM and the TGI (TK-10 renal) was 60 µM. It also gave a GI50 (NCI/ADR-RES ovarian) of 16.6 µM, a TGI (NCI/ADR-RES ovarian) of 58.9 µM and a GI50 (MDA-MB-231 breast) of 18 µM. For the same compound, the TGI (MDA-MB-231 breast) was 41.8 µM, the GI50 (NCI-H23 lung) was 19.7 µM and the TGI (NCI-H23 lung) was 60.5 µM. It also gave a GI50 (HL-60(TB) leukemia) of 28.1 µM, a TGI (HL-60(TB) leukemia) of 89.2 µM and a GI50 (RPMI-8226 leukemia) of 26 µM. The TGI (RPMI-8226 leukemia) was 79.3 µM, the GI50 (BT-549 breast) was 31.6 µM and the TGI (BT-549 breast) was greater than 100 µM. For the same compound, the GI50 (UACC-257 melanoma) was 22.4 µM, the TGI (UACC-257 melanoma) was 61.8 µM and the GI50 (SK-MEL-2 melanoma) was 24.3 µM. For the same compound, the TGI (SK-MEL-2 melanoma) was 52.1 µM, the GI50 (UO-31 renal) was 17.7 µM and the TGI (UO-31 renal) was 53.6 µM. It also gave a GI50 (SN12C renal) of 37.1 µM, a TGI (SN12C renal) greater than 100 µM and a GI50 (SR leukemia) of 13.6 µM. The TGI (SR leukemia) was 46.7 µM, the GI50 (U251 CNS) was 18.2 µM and the TGI (U251 CNS) was 50.7 µM. For the same compound, the GI50 (MDA-MB-435) was 4 µM, the TGI (MDA-MB-435) was 27.2 µM and the GI50 (K-562 leukemia) was 20.3 µM. For the same compound, the TGI (K-562 leukemia) was greater than 100 µM, the GI50 (KM12 colon) was 8.5 µM and the TGI (KM12 colon) was 37.5 µM. For the same compound, the GI50 (HOP-92 NSCLC) was 23.2 µM, the TGI (HOP-92 NSCLC) was 65 µM and the GI50 (HCT-15 colon) was 20.5 µM. The TGI (HCT-15 colon) was greater than 100 µM, the GI50 (SF-539 CNS) was 20.6 µM and the TGI (SF-539 CNS) was 61.6 µM. It also gave a GI50 (SK-MEL-5 melanoma) of 15.2 µM, a TGI (SK-MEL-5 melanoma) of 30.6 µM and a GI50 (SK-MEL-28 melanoma) of 31.8 µM. It also gave a TGI (SK-MEL-28 melanoma) greater than 100 µM, a GI50 (HT29 colon) of 19.7 µM and a TGI (HT29 colon) of 46.6 µM. The GI50 (OVCAR-4 ovarian) was 27.5 µM, the TGI (OVCAR-4 ovarian) was greater than 100 µM and the GI50 (786-0 renal) was 26.6 µM. For the same compound, the TGI (786-0 renal) was 63 µM, the GI50 (ACHN renal) was 30.5 µM and the TGI (ACHN renal) was greater than 100 µM. For the same compound, the GI50 (NCI-H226 lung) was 38.7 µM, the TGI (NCI-H226 lung) was greater than 100 µM and the GI50 (UACC-62 melanoma) was 20.4 µM. The TGI (UACC-62 melanoma) was 57.4 µM, the GI50 (NCI-H522 lung) was 13.8 µM and the TGI (NCI-H522 lung) was 39.9 µM. It also gave a GI50 (DU-145 prostate) of 24.1 µM, a TGI (DU-145 prostate) of 65.2 µM and a GI50 (HCC-2998 colon) of 21.3 µM. It also gave a TGI (HCC-2998 colon) of 51.2 µM, a GI50 (A549 NSCLC) of 26.5 µM and a TGI (A549 NSCLC) greater than 100 µM. It also gave a GI50 (SW-620 colon) of 26.6 µM, a TGI (SW-620 colon) greater than 100 µM and a GI50 (OVCAR-3 ovarian) of 20.2 µM. For the same compound, the TGI (OVCAR-3 ovarian) was 53.6 µM, the GI50 (NCI-H460 lung) was 17.1 µM and the TGI (NCI-H460 lung) was 42.4 µM. For the same compound, the GI50 (EKVX NSCLC) was 19.8 µM, the TGI (EKVX NSCLC) was 69.2 µM and the GI50 (SF-295 CNS) was 15.8 µM. For the same compound, the TGI (SF-295 CNS) was 39.5 µM, the GI50 (MOLT-4 leukemia) was 21.4 µM and the TGI (MOLT-4 leukemia) was 82 µM. It also gave a GI50 (A498 renal) of 12.8 µM, a TGI (A498 renal) of 47.7 µM and a GI50 (HS 578T breast) of 15.3 µM. The TGI (HS 578T breast) was 43.6 µM, the GI50 (LOX IMVI melanoma) was 26.9 µM and the TGI (LOX IMVI melanoma) was greater than 100 µM. It also gave a GI50 (IGROV1 ovarian) of 16.4 µM, a TGI (IGROV1 ovarian) of 70.7 µM and a GI50 (OVCAR-5 ovarian) of 34.8 µM. It also gave a TGI (OVCAR-5 ovarian) greater than 100 µM, a GI50 (MALME-3M melanoma) of 22.7 µM and a TGI (MALME-3M melanoma) of 64.7 µM. For the same compound, the GI50 (T-47D breast) was 12.7 µM and the TGI (T-47D breast) was 78 µM.
